Data: patent publication EP2905024A1 (Institut Quimic De Sarriá Cets, Fundació Privada, priority 2014, dated 2015)

Tests used:
[1] = tested on: subgenomic HCV genotype 1b replicon, I389/NS3-3'/ LucUbiNeo-ET; test: in vitro antiviral activity: luciferase assay in LucUbiNeo-ET HCV replicon cells; type: cell-based; settings: Hepatitis C virus, 48 h, 2 days of incubation, luciferase readout, mean of duplicates
Excerpt: (§1) To analyze the antiviral activity of the compounds, we used a stable cell line, LucUbiNeo-ET, that contains a subgenomic HCV genotype 1b replicon, I389/NS3-3'/ LucUbiNeo-ET, that express luciferase constitutively (Krieger et al, JVI 2001; 75:4614; Frese et al., JGV 2003; 84: 1253-1259). To evaluate the cellular toxicity, we use other cell line, Huh-7/Lunet (Friebe et al., JVI 2005; 79: 380-392), that originally carried a selectable luciferase HCV 1b replicon and was cured by treatment with an HCV-specific inhibitor. These cells are characterized by high permissiveness for HCV RNA replication. LucUbiNeo-ET cell line was cultured at 37°C in a humidified atmosphere with 5% CO2 in Dulbecco's modified Eagle medium (D-MEM) supplemented with high glucose concentration (4.5g/l) (Invitrogen), 10% (vol/vol) heat-inactivated fetal bovine serum (Hyclone, Cultek), 2mM L-Glutamine (Sigma-aldrich), 1mM sodium pyruvate (Sigma-aldrich), 1% MEM NEEA (Sigma-aldrich), and 0.5 mg/ml of Geneticin (G418) (Gibco, Invitrogen). Cured or Huh-7/Lunet cell line was maintained at the same conditions as described above without the addition of Geneticin.
(§2) Antiviral activity was carried out in white-clear bottom 96-well plates, and cytotoxicity assays were performed in clear 96-well plates. Cells were seeded at a density of 10^4/well in 100ul D-MEM without selection of antibiotics. After 24h, nine fivefold serial dilution of compounds, with 3 replicates at each dilution, were prepared in D-MEM and added to the appropriate wells, yielding concentrations of 125 to 0,00032 ug/ml in a final volume of 100 ul of D-MEM. Following 2 days of incubation, we determined the antiviral activity (EC50) by quantifying the luciferase with the Luciferase Bright Glo assay (Promega). Briefly, LucUbiNeo-ET cells were harvested with the addition of 100 ul of luciferase per well, and after 2 minutes of shaking, the light was read in a Luminometer Fluoroskan Ascent FL. Toxicity (CC50) was analysed in the Lunet/HuH7 cells by the addition of 10 ul of MTT (3-(4,5-dimethylthiazol-2-yl)-2,5-diphenyltetrazolium bromide) per well. After 4h of incubation at 37°C in a humidified atmosphere with 5% CO2, the amount of formazan produced was quantified spectrophotometrically at 550/620 nm [C. Pannecouque et al, Nature protocol 2008; 3 (3): 427-434]. The EC50 and CC50 values were calculated for each compound. These assays were done in duplicate and the results shown in Table 1 represent the mean value of these duplicates.

cytotoxicity assay (MTT) = type: cell-based; settings: human, Lunet/HuH7 cells, 2 days of incubation, mean of duplicates; for CC50 at 2 days: Huh-7/Lunet cells (cured HCV replicon cells)
Excerpt: as §1, §2

Row | SMILES | EC50 [1] [µM] | CC50 at 2 days (cytotoxicity assay (MTT)) [µM] | CC50 at 48 h (cytotoxicity assay (MTT); huh-7/lunet cells) [µM]
1 | COCCOc1nc(N)nc2c1CC(c1c(Cl)cccc1Cl)C(=O)N2 (stereo not drawn) [Example 13, 2-amino-6-(2,6-dichlorophenyl)-4-(2-methoxyethoxy)-5,6-dihydropyrido[2,3-d]pyrimidine-7(8H)-one] | 5 to 22 | ≥ 25 | –
2 | Cn1c(=O)c(-c2ccccc2)cc2c(N)nc(Nc3ccccc3)nc21 [Example 50, 4-amino-8-methyl-6-phenyl-2-(phenylamino)pyrido[2,3-d]pyrimidine-7(8H)-one] | < 1 | 10 to 25 | –
3 | Cn1c(=O)c(-c2c(Cl)cccc2Cl)cc2cnc(Nc3ccccc3)nc21 [Example 53, 6-(2,6-dichlorophenyl)-8-methyl-2-(phenylamino)pyrido[2,3-d]pyrimidine-7(8H)-one] | < 1 | < 10 | –
4 | CCCOCCNc1nc(N)nc2c1cc(-c1ccc(F)cc1)c(=O)n2C [Example 41, 2-amino-6-(4-fluorophenyl)-8-methyl-4-((2-propoxyethyl)amino)pyrido[2,3-d]pyrimidine-7(8H)-one] | 1 to 5 | ≥ 25 | –
5 | Cn1c(=O)c(-c2c(Cl)cccc2Cl)cc2c(N)nc(Nc3ccc(Br)cc3)nc21 [Example 60, 4-amino-2-((4-bromophenyl)amino)-6-(2,6-dichlorophenyl)-8-methylpyrido[2,3-d]pyrimidine-7(8H)-one] | < 1 | < 10 | –
6 | CCCOCCNc1nc(Nc2ccccc2)nc2c1CC(c1c(Cl)cccc1Cl)C(=O)N2 (stereo not drawn) [Example 11, 6-(2,6-dichlorophenyl)-2-(phenylamino)-4-((2-propoxyethyl)amino)-5,6-dihydropyrido[2,3-d]pyrimidine-7(8H)-one] | 5 to 22 | ≥ 25 | –
7 | CN1CCN(c2ccc(Nc3nc(N)c4cc(-c5c(Cl)cccc5Cl)c(=O)n(C)c4n3)cc2)CC1 [Example 61] | < 1 | < 10 | –
8 | O=c1[nH]c2nc(Nc3ccccc3)[nH]c(=O)c2cc1-c1ccccc1 [Example 30, 6-phenyl-2-(phenylamino)pyrido[2,3-d]pyrimidine-4,7(3H,8H)-dione] | 5 to 22 | ≥ 25 | –
9 | Cn1c(=O)c(-c2c(Cl)cccc2Cl)cc2c(N)nc(N)nc21 [Example 52] | 5 to 22 | – | ≥ 25
